Laboratory results reported in ChEMBL document CHEMBL1201862, “PubChem BioAssay data set” (2004).
Active and inactive are the calls of the source.

Columns and labels:
[1] = target: Cytochrome P450 3A4 (Homo sapiens, UniProt P08684); settings: Potency;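 also: confirmatory qHTS run detecting inhibitors and substrates of CYP3A4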
[2] = toxicity toward HepG2 liver cells – cell-based, plate reader, cherry-pick, antagonist series, cytotoxicity control, dose response (AID 743416); type: functional
[3] = DRD fibroblast viability loss – cell-based, non-viral oncogenic, luminescence, dose response (AID 1934); type: functional; settings: Homo sapiens
[4] = system: BJ; experiment: cells; type: functional, cell-based; settings: Homo sapiens
[5] = system: BJ; experiment: BJ-TERT fibroblast viability loss – cell-based, RAS-independent, luminescence, dose response (AID 1933); type: functional; settings: Homo sapiens
[6] = viability loss in HEK293 cells – cell-based, plate reader, cherry-picked samples, cytotoxicity control, dose response (AID 743446); type: functional
[7] = system: BJ; experiment: BJ-TERT-LT-ST fibroblast viability loss – cell-based, RAS-independent, luminescence, dose response (AID 1935); type: functional; settings: Homo sapiens;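 also: BJ fibroblasts immortalized with TERT plus LT and ST oncogenes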
[8] = A549 cell cytotoxicity, dose response, cytotoxicity control, plate reader, cherry-pick, antagonist series (AID 743412); type: functional, cell-based
[9] = blockers of bursicon-stimulated LGR2 cAMP reporter – cell-based, HEK293, CRE-luciferase reporter, cherry pick, set 2, dose response (AID 743343); type: functional;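 also: transfected cells were stimulated with diluted bursicon conditioned medium after compound addition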
[10] = blockade of melanocortin 4 receptor signaling – cell-based, plate reader, cherry pick, counter-screen for LGR2 antagonist project, dose response (AID 743444); type: functional;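 also: transfected HEK 293 cells stimulated with alpha-MSH peptide; potency of inhibitors of the alpha-MSH evoked signal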
[11] = viability loss in HepG2 hepatoma cells – cell-based, ATP luminescence, cherry-pick, activator set 2, cytotoxicity control, dose response (AID 1053143); type: functional
[12] = target: T1, E3 ubiquitin-protein ligase XIAP (Homo sapiens, UniProt P98170); experiment: small molecules displacing peptide from XIAP – biochemical, IAP family, fluorescence polarization (AID 1018); type: functional
T1 sequence (P98170 whole entry): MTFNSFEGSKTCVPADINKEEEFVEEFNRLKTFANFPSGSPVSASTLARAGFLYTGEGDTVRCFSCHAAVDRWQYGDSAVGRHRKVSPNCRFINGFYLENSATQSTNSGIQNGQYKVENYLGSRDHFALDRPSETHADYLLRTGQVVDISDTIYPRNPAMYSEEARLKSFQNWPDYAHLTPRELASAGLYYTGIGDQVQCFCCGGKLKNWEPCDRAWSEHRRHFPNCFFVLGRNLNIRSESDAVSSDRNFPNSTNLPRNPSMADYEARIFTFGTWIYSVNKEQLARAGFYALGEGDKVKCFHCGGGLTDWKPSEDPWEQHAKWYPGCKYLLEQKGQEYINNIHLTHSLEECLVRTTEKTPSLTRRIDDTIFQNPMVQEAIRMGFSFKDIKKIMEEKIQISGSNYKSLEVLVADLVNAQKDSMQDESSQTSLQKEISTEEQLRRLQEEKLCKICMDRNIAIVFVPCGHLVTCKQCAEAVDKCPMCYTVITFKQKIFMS

[13] = target: T1, E3 ubiquitin-protein ligase XIAP; experiment: Counter Screen using XIAP-Bir3 for Chemical Antagonists of Bir1/2 domains of IAP-family anti-apoptotic proteins. [Related pubchem assays (depositor defined):AID1018, AID1449, AID1514, AID1638, AID1749, AID1750, AID488957, AID488963]
[14] = target: Peroxisome proliferator-activated receptor gamma/Nuclear receptor coactivator 2 (Homo sapiens, UniProt P37231); type: functional;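 also: agonist potency for raising coactivator recruitment to the receptor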
[15] = target: Peroxisome proliferator-activated receptor gamma/Nuclear receptor coactivator 1 (Homo sapiens, UniProt P37231); type: functional;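 also: agonist potency as compounds enhance coactivator SRC-1 recruitment to PPARgamma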
Peroxisome proliferator-activated receptor gamma/Nuclear receptor coactivator 1, sequence (P37231 whole entry): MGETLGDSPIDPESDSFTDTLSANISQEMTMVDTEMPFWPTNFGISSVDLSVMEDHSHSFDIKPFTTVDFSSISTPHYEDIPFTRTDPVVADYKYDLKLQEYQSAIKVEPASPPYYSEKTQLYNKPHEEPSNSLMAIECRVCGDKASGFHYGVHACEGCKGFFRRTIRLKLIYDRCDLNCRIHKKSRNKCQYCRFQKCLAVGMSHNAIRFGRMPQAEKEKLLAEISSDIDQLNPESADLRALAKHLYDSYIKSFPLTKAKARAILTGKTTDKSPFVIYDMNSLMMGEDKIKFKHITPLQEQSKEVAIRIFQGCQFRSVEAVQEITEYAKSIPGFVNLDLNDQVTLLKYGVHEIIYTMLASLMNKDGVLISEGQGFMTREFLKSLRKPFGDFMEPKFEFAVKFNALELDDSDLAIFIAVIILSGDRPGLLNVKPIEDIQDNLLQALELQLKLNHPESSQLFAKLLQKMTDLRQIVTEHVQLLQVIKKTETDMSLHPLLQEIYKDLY
Peroxisome proliferator-activated receptor gamma/Nuclear receptor coactivator 1, sequence (Q15788 whole entry, further chain): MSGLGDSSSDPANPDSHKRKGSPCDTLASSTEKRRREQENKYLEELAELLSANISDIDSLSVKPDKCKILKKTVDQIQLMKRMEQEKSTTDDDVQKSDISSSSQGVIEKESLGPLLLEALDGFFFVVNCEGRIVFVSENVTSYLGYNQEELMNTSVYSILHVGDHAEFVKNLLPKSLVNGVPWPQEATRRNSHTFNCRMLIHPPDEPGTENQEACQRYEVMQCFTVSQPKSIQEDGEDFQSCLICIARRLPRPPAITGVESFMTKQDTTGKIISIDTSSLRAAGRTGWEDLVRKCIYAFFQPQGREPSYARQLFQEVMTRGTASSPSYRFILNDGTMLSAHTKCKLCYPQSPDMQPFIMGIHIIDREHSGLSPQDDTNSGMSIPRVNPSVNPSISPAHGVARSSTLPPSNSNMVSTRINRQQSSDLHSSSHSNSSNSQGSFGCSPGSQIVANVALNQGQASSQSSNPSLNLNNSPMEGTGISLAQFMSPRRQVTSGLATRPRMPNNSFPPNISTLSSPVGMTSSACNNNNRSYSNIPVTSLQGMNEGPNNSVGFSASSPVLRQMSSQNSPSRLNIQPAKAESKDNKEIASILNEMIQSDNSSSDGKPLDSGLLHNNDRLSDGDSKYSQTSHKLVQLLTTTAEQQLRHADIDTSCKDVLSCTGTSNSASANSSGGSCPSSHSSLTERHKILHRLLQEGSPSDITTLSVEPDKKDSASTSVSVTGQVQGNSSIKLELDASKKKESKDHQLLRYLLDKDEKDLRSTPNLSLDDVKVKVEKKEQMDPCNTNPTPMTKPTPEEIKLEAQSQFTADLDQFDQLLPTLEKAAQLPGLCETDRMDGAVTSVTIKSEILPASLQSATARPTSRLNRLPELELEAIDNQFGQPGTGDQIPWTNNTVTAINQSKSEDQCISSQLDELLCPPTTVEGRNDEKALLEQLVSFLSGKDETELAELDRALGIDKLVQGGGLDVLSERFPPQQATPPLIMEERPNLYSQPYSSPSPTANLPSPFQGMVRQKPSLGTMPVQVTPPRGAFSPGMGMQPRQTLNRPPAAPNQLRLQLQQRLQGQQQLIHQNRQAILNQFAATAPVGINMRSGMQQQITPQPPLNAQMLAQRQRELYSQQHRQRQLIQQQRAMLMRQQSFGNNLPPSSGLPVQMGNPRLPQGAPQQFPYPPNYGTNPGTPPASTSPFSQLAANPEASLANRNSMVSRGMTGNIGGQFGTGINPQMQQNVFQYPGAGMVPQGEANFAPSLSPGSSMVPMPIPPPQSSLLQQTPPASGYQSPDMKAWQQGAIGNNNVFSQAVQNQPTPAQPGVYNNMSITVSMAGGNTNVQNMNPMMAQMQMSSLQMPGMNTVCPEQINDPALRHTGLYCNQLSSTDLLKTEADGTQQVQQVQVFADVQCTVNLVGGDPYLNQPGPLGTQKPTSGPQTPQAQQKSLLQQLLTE

[16] = target: Peroxisome proliferator-activated receptor gamma/Nuclear receptor coactivator 3 (Homo sapiens, UniProt P37231); type: functional;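 also: agonist potency for raising coactivator recruitment to the receptor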
Peroxisome proliferator-activated receptor gamma/Nuclear receptor coactivator 3, sequence (P37231 whole entry): as the sequence (P37231 whole entry) above
Peroxisome proliferator-activated receptor gamma/Nuclear receptor coactivator 3, sequence (Q9Y6Q9 whole entry, further chain): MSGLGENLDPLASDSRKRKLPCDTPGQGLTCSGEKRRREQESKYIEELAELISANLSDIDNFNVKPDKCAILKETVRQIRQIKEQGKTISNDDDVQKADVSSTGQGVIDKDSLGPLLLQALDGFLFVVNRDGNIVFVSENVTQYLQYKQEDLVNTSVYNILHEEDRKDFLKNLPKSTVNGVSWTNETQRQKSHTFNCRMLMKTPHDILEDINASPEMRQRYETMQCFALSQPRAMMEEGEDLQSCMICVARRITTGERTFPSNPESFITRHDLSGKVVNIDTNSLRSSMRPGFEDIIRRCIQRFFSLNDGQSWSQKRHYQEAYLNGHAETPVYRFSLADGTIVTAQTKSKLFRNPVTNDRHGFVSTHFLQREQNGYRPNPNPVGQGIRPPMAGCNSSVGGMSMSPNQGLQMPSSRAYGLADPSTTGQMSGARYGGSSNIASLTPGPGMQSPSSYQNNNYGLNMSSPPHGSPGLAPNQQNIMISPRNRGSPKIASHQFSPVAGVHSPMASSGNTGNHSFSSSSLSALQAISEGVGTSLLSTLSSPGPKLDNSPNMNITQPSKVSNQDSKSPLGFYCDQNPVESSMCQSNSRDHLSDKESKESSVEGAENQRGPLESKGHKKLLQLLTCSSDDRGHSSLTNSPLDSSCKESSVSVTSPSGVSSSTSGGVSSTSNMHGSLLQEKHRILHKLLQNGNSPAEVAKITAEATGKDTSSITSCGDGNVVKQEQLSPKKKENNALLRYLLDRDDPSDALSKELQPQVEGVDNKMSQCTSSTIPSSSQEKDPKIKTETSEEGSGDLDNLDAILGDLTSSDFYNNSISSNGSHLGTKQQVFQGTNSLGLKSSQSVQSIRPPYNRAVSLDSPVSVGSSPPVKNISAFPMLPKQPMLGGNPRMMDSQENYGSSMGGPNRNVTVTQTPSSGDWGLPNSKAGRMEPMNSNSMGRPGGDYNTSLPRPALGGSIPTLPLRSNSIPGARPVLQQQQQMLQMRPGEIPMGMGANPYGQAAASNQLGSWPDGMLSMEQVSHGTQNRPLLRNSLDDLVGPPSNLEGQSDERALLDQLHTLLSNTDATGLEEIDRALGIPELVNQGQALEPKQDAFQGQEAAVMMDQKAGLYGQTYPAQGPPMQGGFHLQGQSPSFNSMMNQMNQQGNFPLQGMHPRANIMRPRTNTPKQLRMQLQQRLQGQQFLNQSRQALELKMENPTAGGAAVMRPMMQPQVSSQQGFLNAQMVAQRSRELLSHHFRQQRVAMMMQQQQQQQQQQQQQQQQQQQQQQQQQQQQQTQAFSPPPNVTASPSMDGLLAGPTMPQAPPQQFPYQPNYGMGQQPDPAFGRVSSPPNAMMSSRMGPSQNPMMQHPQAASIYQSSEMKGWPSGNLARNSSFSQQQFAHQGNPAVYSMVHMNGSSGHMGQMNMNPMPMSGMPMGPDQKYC

[17] = target: Estrogen receptor beta (Homo sapiens, UniProt Q92731); experiment: blockers of SRC-3 recruitment to ERβ – biochemical, ELISA, streptavidin-HRP readout, orthogonal assay, confirmation (AID 1060)
[18] = target: T2, RNA-binding protein pos-1 (Caenorhabditis elegans, UniProt G5EF15); experiment: disruptors of C. elegans POS-1 RNA interaction – biochemical, fluorescence polarization, dose response (AID 1964);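 also: purified POS-1 fused to maltose binding protein made in E. coli; potency of compounds blocking POS-1 binding to fluorescent RNA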
T2 sequence (G5EF15 whole entry): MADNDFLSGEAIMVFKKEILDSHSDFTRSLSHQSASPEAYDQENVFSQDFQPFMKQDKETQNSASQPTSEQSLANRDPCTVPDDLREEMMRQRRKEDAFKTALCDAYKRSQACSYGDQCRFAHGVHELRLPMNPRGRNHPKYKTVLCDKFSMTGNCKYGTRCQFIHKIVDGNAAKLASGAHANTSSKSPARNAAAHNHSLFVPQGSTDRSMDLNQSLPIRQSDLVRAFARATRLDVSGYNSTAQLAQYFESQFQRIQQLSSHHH

[19] = target: T3, Zinc finger protein mex-5 (Caenorhabditis elegans, UniProt Q9XUB2); experiment: potency of MEX-5 RNA-binding blockers – biochemical, C. elegans, fluorescence polarization, dose response (AID 1960)
T3 sequence (Q9XUB2 whole entry): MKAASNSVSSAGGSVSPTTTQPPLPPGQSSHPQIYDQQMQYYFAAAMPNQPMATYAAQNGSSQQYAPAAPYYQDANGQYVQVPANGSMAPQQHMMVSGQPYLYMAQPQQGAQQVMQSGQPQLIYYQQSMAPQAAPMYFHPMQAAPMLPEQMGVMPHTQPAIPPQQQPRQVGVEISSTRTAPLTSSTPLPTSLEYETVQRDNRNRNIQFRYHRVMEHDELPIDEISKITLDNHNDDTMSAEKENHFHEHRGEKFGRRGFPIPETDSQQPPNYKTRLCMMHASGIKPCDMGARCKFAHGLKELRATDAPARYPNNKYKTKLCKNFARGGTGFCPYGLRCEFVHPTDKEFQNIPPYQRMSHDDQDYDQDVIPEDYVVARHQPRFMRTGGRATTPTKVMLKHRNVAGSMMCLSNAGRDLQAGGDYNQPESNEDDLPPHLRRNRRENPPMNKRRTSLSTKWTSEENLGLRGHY

[20] = target: T4, Histone-lysine N-methyltransferase NSD2 (Homo sapiens, UniProt O96028); type: biochemical
T4 sequence (O96028 whole entry): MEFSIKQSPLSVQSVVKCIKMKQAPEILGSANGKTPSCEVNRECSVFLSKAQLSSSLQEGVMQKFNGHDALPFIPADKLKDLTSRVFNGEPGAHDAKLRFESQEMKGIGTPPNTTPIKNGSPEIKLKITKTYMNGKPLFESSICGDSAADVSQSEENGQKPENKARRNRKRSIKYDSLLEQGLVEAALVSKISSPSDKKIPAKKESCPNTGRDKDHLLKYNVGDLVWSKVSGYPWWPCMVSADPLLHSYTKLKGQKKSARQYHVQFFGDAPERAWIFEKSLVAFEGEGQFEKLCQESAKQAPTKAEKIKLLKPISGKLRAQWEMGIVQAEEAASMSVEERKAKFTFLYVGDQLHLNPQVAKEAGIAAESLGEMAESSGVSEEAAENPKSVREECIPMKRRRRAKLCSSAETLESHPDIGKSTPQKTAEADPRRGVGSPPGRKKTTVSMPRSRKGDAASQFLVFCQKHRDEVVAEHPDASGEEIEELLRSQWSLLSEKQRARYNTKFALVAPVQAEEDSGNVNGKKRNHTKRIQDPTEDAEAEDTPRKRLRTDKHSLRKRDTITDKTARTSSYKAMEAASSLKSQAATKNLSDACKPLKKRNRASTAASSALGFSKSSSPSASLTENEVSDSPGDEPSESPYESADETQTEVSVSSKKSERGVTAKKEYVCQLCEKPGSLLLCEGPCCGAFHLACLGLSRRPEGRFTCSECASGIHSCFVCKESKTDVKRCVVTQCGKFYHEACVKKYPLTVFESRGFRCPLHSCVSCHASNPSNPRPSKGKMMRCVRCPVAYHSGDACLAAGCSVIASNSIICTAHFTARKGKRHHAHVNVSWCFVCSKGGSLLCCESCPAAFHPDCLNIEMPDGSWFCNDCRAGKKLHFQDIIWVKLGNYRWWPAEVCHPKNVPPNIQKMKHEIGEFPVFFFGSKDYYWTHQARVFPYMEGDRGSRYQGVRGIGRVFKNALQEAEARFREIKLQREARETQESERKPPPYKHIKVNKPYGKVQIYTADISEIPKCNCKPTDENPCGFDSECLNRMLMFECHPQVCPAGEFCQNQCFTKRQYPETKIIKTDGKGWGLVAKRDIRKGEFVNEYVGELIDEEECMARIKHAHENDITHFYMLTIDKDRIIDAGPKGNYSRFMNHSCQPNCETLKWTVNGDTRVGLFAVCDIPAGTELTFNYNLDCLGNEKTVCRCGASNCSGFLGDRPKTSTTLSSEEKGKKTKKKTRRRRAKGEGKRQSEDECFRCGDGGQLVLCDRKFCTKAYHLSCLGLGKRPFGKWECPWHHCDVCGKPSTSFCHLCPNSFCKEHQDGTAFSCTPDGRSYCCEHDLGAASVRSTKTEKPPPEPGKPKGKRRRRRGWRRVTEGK

[21] = system: H4; experiment: Luminescence Cell-Based Dose Response HTS to Identify Activators of 5'UTR Stem-Loop Driven Prion Protein mRNA Translation in H4 Neuroglioblastoma Cells. [Related pubchem assays: 1829 (Project Summary), 1814 (Primary HTS)]; type: functional; settings: Homo sapiens
[22] = target: T5, Heat shock factor protein 1 (Mus musculus, UniProt P38532); experiment: decrease of HSF1-responsive luciferase luminescence – cell-based, NIH3T3, dose retest, confirmation (AID 2382); type: functional;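 also: NIH3T3 fibroblasts with HSF1-driven luciferase reporter stressed by proteasome inhibitor MG132; luminescence from HSF1-driven luciferase expression after 8 hours of MG132 stress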
T5 sequence (P38532 whole entry): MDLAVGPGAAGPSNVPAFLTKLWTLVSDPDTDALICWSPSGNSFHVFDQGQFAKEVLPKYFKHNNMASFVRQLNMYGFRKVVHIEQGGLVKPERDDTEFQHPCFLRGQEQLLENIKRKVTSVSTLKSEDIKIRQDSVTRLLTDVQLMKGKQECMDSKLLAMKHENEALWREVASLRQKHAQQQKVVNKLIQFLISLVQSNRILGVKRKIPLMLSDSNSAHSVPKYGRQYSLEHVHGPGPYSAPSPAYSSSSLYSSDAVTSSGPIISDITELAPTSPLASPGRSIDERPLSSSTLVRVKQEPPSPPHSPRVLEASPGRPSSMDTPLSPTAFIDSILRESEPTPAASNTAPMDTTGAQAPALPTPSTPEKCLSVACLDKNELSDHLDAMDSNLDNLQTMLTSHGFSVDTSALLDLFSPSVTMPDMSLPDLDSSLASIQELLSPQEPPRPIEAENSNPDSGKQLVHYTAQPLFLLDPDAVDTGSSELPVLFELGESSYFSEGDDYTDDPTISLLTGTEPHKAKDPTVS

Cytochrome P450 3A4, sequence (P08684 whole entry): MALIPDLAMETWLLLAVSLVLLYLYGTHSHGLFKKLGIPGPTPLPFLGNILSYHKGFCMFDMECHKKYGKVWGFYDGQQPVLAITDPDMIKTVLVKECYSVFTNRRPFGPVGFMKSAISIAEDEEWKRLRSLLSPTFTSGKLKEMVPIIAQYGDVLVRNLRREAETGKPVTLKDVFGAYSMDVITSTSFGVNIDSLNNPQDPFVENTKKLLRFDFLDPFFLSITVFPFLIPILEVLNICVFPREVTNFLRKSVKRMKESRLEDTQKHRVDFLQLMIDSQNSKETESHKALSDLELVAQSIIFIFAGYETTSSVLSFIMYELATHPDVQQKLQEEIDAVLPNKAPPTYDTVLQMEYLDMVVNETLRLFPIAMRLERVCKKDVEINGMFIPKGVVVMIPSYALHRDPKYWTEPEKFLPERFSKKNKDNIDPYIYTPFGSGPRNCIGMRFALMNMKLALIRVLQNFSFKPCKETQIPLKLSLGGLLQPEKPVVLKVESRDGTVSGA

With S=C(NC1CCCCC1)NC1CCCCC1 the AC50 [1] was 25.1 µM (inconclusive).
For CN(C)C(=O)Oc1ccc(OCc2nc3ccccc3[nH]2)cc1, the AC50 [2] was 13.8 µM (active), the EC50 [3] was 8.55 µM (inconclusive) and the EC50 [4] was 11.2 µM (inconclusive). For the same compound, the EC50 [5] was 8.38 µM (inconclusive), the AC50 [6] was 10.2 µM (active) and the EC50 [7] was 22.3 µM (active). The AC50 [8] was 11.8 µM (active), the AC50 [9] was 6.62 µM (active) and the AC50 [10] was 6.14 µM (active).
With Cc1cc(NC(=O)c2ccc(OCC3CCCO3)cc2)ccc1Br (stereo not drawn) the AC50 [11] was 26 µM (active).
In the case of CC(C)CC1(C(=O)O)NC(c2ccccc2O)C2C(=O)N(C(C)C)C(=O)C21 (stereo not drawn), the IC50 [12] is reported as > 100 µM (not active) and the IC50 [13] is reported as > 100 µM (inactive).
For O=C(Nc1cccc(NS(=O)(=O)c2ccc(S(=O)(=O)NC3CC3)cc2)c1)c1ccccn1, the EC50 [14] was > 79.4 µM (not active), the EC50 [15] was > 79.4 µM (not active) and the EC50 [16] was > 79.4 µM (not active).
In the case of COC(=O)c1ccc(NC(=O)CSc2nc(C)cc(=O)[nH]2)cc1, the IC50 [17] is reported as > 50 µM (not active).
In the case of O=C(O)c1cccc(-n2cccc2/C=C\[N+](=O)[O-])c1, the EC50 [18] is reported as 83.7 µM (active), the EC50 [19] is reported as 40.8 µM (active) and the AC50 [20] is reported as > 20 µM (inactive).
For O=C(Cc1nc2ccccc2nc1O)c1ccccc1, the EC50 [18] was 42.5 µM (inconclusive), the EC50 [19] was > 300 µM (inconclusive) and the EC50 [14] was > 79.4 µM (not active). The EC50 [15] was > 79.4 µM (not active), the EC50 [16] was > 79.4 µM (not active) and the EC50 [21] was 0.419 µM (active).
For N#CC1(C#N)COC23CCCCC2C1(C#N)C(=N)O3 (stereo not drawn), the IC50 [12] was > 100 µM (not active), the IC50 [13] was > 100 µM (inactive) and the EC50 [22] was > 195 µM (not active).
In the case of Cc1ccc(N(CC(=O)N/N=C/c2cccc(Br)c2)S(C)(=O)=O)cc1, the IC50 [12] is reported as > 100 µM (not active) and the IC50 [13] is reported as > 100 µM (inactive).
With O=C(NCc1ccc(Cl)cc1)c1ccc2[nH]cnc2c1 the IC50 [12] was > 100 µM (not active) and the IC50 [13] was > 100 µM (inactive).
With O=C(Nc1ccccc1)c1cc(C2CCCN(C(=O)C3CC3)C2)on1 (stereo not drawn) the AC50 [2] was > 52 µM (inactive), the AC50 [6] was 46.4 µM (active) and the AC50 [8] was 49.2 µM (active). For the same compound, the AC50 [9] was 7.27 µM (active) and the AC50 [10] was 4.34 µM (active).
